Read-outs that look alike come from different tables or passages of the source.
Columns and labels:
DU-145 [1] = experiment: Cell growth inhibition assay (MTT, day 0 subtracted); assay type: cell-based, human; conditions: 72 h, read-out: In vitro Growth Inhibitory Concentration (GI50)
Method: (§1) Various cancer cells were used to screen anticancer activity of newly synthesized compounds. Lung (A549 and NCI-H460), colon (HCT-15 and HT-29), prostate (DU-145) cancer cells maintained in RPMI-1640 media while normal lung fibroblasts cell line (HFL-1) were maintained in F-12 k medium supplemented with 10% fetal bovine serum (FBS) with 1% antibiotic-antimycotic solution (Sigma). Cells were maintained in 5% CO2 with 98% relative humidity at 37 °C in incubator. When 80-90% of confluency is reached, they were sub-cultured using 0.25% trypsin/1 mM EDTA solution for further passage. The compounds in this series were dissolved in DMSO (1 %) to prepare the stock solution of 10 mM. Further dilutions were made accordingly with respective media to obtain the required concentrations.
(§2) Briefly, the cells were seeded on to a 96-well plate in 100 µl of medium. Following 24 h MTT reagent was added in few wells and day 0 absorbance was analyzed, and then cells were treated with compounds and incubated for an additional 72 h. After the treatment, 100 µl of MTT (0.5 mg/ml) was added and incubated at 37 °C for 4 h. Then MTT reagent was suctioned, the insoluble formazan crystals were dissolved in DMSO and formazan product formed is measured at 570 nm wavelength. The day 0 absorbance was subtracted from the 72 h incubated plates and data were plotted as a percentage of untreated control (Dai et al., 2011).

A549 [2] = experiment: as above; assay type: cell-based, human; conditions: 72 h, read-out: In vitro Growth Inhibitory Concentration (GI50)
Method: as §1, §2

NCI-H460 [3] = experiment: as above; assay type: cell-based, human; conditions: 72 h, read-out: In vitro Growth Inhibitory Concentration (GI50)
Method: as §1, §2

HT-29 [4] = experiment: as above; assay type: cell-based, human; conditions: 72 h, read-out: In vitro Growth Inhibitory Concentration (GI50)
Method: as §1, §2

[5] = tested on: HFL-1 normal lung fibroblasts; experiment: as above; assay type: cell-based, human; conditions: read-out: In vitro Growth Inhibitory Concentration (GI50)
Method: as §1, §2

HCT-15 [6] = experiment: as above; assay type: cell-based, human; conditions: 72 h, read-out: In vitro Growth Inhibitory Concentration (GI50)
Method: as §1, §2

DU-145 [7] = experiment: MTT cytotoxicity assay; assay type: cell-based, human; conditions: DU-145 prostate cancer, 72 h, read-out: In vitro Inhibitory Concentration (IC50)
Method: as §1
(§3) MTT assay measures the reduction of MTT (3-(4,5-dimethylthiazol- 2-yl)-2,5-diphenyl tetrazolium bromide) by mitochondrial succinate dehydrogenase enzyme to insoluble formazan crystals. Since reduction of MTT occurs only in metabolically active cells, the level of activity is the measure of the viability of the cells.(Pordeli et al., 2017). Briefly, cells were plated in 96-well plates at a density of 3,000 to 6,000 cells per well in 100 µl of complete medium and allowed to grow overnight. Then the cells were treated with different concentrations of the synthesized compounds and incubated for 72 h. After the treatment, 100 µl of MTT (0.5 mg/ml) was added and incubated at 37 °C for 4 h. Then MTT reagent was aspirated and formazan crystals formed were dissolved by the addition of 200 µL of DMSO for 20 min at 37 °C. The formazan product quantity was measured by using a spectrophotometric microtiter plate reader (Spectra Max, M4 Molecular devices, USA) at 570 nm wavelength(Nekkanti et al., 2017).

A549 [8] = experiment: MTT cytotoxicity assay; assay type: cell-based, human; conditions: A549 adenocarcinoma (lung), MTT, 72 h, read-out: In vitro Inhibitory Concentration (IC50)
Method: as §1, §3

NCI-H460 [9] = experiment: MTT cytotoxicity assay; assay type: cell-based, human; conditions: NCI-H460 lung carcinoma, 72 h, read-out: In vitro Inhibitory Concentration (IC50)
Method: as §1, §3

HT-29 [10] = experiment: MTT cytotoxicity assay; assay type: cell-based, human; conditions: HT-29 colorectal cancer, 72 h, read-out: In vitro Inhibitory Concentration (IC50)
Method: as §1, §3

[11] = tested on: HFL-1 normal lung fibroblasts; experiment: MTT cytotoxicity assay; assay type: cell-based, human; conditions: read-out: In vitro Inhibitory Concentration (IC50)
Method: as §1, §3

HCT-15 [12] = experiment: MTT cytotoxicity assay; assay type: cell-based, human; conditions: HCT-15 colon cancer, 72 h, read-out: In vitro Inhibitory Concentration (IC50)
Method: as §1, §3

Compound	GI50 (DU-145 [1]) [µM]	GI50 (A549 [2]) [µM]	GI50 (NCI-H460 [3]) [µM]	GI50 (HT-29 [4]) [µM]	GI50 ([5]; 72 h) [µM]	GI50 (HCT-15 [6]) [µM]	IC50 (DU-145 [7]) [µM]	GI50 (DU-145 [1]; Homo sapiens) [µM]	GI50 (A549 [2]; Homo sapiens) [µM]	GI50 (NCI-H460 [3]; Homo sapiens) [µM]	GI50 (HT-29 [4]; Homo sapiens) [µM]	GI50 ([5]; Homo sapiens, HFL1, 72 h) [µM]	GI50 (HCT-15 [6]; Homo sapiens) [µM]	IC50 (DU-145 [7]; Homo sapiens) [µM]	IC50 (A549 [8]; Homo sapiens) [µM]	IC50 (NCI-H460 [9]; Homo sapiens) [µM]	IC50 (HT-29 [10]; Homo sapiens) [µM]	IC50 ([11]; Homo sapiens, HFL1, 72 h) [µM]	IC50 (HCT-15 [12]; Homo sapiens) [µM]	melting point [°C]	also measured
Cc1ccc(C2C3=C(CCCC3)N=C3C=CC=CN32)cc1 (stereo not drawn) [Compound 4e]	17.7 ± 0.13	29.5 ± 0.79	20.8 ± 1.82	15.8 ± 0.97	68.6 ± 3.2	23.44 ± 0.2	23.2 ± 0.25	–	–	–	–	–	–	–	–	–	–	–	–	–	IC50 (A549 [8]): 43.1 ± 2.43 µM; IC50 (NCI-H460 [9]): 43.2 ± 2.58 µM; IC50 (HT-29 [10]): 39.5 ± 1.4 µM; IC50 ([11]; 72 h): 85 ± 3.8 µM; IC50 (HCT-15 [12]): 40.9 ± 0.55 µM
11-(4-trimethoxyphenyl)-2, 3, 4, 11-tetrahydro-1H-pyrido[2,1-b] quinazoline [Compound 4h]	> 30	> 30	> 30	> 30	> 30	> 30	> 30	–	–	–	–	–	–	–	–	–	–	–	–	–	IC50 (A549 [8]): > 30 µM; IC50 (NCI-H460 [9]): > 30 µM; IC50 (HT-29 [10]): > 30 µM; IC50 ([11]; 72 h): > 30 µM; IC50 (HCT-15 [12]): > 30 µM
COc1ccc(C2C3=C(CCCC3)N=C3C=CC=CN32)cc1 (stereo not drawn) [Compound 4d, 11-(4-Methoxyphenyl)-2,3,4, 11-tetrahydro-1H-pyrido[2,1-b]quinazoline]	–	–	–	–	–	–	–	> 30	> 30	> 30	> 30	> 30	> 30	> 30	> 30	> 30	> 30	> 30	> 30	88 to 89	–
Fc1ccc(C2C3=C(CCCC3)N=C3C=CC(Cl)=CN32)cc1 (stereo not drawn) [Compound 4g, 8-chloro-11-(4-fluorophenyl)-2,3,4,11-tetrahydro-1H-pyrido[2,1-b]quinazoline]	–	–	–	–	–	–	–	7.37 ± 2.5	9.23 ± 0.93	17.5 ± 2.05	20.8 ± 3.74	41.7 ± 0.98	10 ± 0.97	32.9 ± 3.77	25.5 ± 3.98	41.5 ± 1.27	41.3 ± 1.43	63.1 ± 1.79	28.6 ± 1.96	88 to 93	–
C1=CC2=NC3=C(CCCC3)C(c3c[nH]c4ccccc34)N2C=C1 (stereo not drawn) [Compound 4j, 11-(1H-indol-3-yl)-2,3,4, 11-tetrahydro-1H-pyrido [2,1-b]quinazoline]	–	–	–	–	–	–	–	8.1 ± 0.1	5.79 ± 0.14	7.1 ± 0.19	4.4 ± 0.2	7.67 ± 0.22	7.81 ± 0.65	12.6 ± 0.23	8.98 ± 0.32	9.27 ± 0.54	7.25 ± 0.38	9.31 ± 0.32	10.9 ± 0.4	180 to 182	–
Clc1ccc(C2C3=C(CCCC3)N=C3C=CC=CN32)cc1 (stereo not drawn) [Compound 4b, 11-(4-Chlorophenyl)-2,3,4, 11-tetrahydro-IH-pyrido [2,1-b] quinazoline]	> 30	> 30	> 30	> 30	> 30	> 30	> 30	–	–	–	–	–	–	–	–	–	–	–	–	–	IC50 (A549 [8]): > 30 µM; IC50 (NCI-H460 [9]): > 30 µM; IC50 (HT-29 [10]): > 30 µM; IC50 ([11]; 72 h): > 30 µM; IC50 (HCT-15 [12]): > 30 µM
O=[N+]([O-])c1ccc(C2C3=C(CCCC3)N=C3C=CC=CN32)cc1 (stereo not drawn) [Compound 4c, 11-(4-Nitrophenyl)-2,3,4, 11-tetrahydro-1H-pyrido[2,1-b]quinazoline]	–	–	–	–	–	–	–	> 30	> 30	> 30	> 30	> 30	> 30	> 30	> 30	> 30	> 30	> 30	> 30	150 to 151	–
ClC1=CN2C(=NC3=C(CCCC3)C2c2ccc(Cl)cc2)C=C1 (stereo not drawn) [Compound 4f, 8-Chloro-11-(4-chlorophenyl)-2,3,4, 11-tetrahydro-1H-pyrido [2,1-b] quinazoline]	–	–	–	–	–	–	–	11.3 ± 0.34	8.64 ± 0.4	9.62 ± 0.41	11.43 ± 0.06	11.6 ± 0.17	12.9 ± 0.73	16.08 ± 0.14	12.8 ± 1.5	12.6 ± 0.35	15.4 ± 0.11	15.2 ± 0.3	19.3 ± 1.16	131 to 132	–
C1=CC2=NC3=C(CCCC3)C(c3ccccc3)N2C=C1 (stereo not drawn) [Compound 4a, 11-Phenyl-2,3,4, 11-tetrahydro-1H-pyrido [2,1-b] quinazoline]	–	–	–	–	–	–	–	> 30	> 30	> 30	> 30	> 30	> 30	> 30	> 30	> 30	> 30	> 30	> 30	154 to 156	–

Source: paper PMC7332124, “Design, One Pot Synthesis and Molecular Docking Studies of Substituted-1H-Pyrido[2,1-b] Quinazolines as Apoptosis-Inducing Anticancer Agents” (Asian Pacific Journal of Cancer Prevention : APJCP, 2020)
